This passage reports GI50 and TGI results from PubChem BioAssay (NCI).

Test systems include ACHN renal; HCT-116 colon; HOP-62 NSCLC; KM12 colon; M14 melanoma; NCI-H23 lung; NCI/ADR-RES ovarian; RXF 393 renal; SF-539 CNS; SK-OV-3 ovarian.
Test in all cases: growth of human tumour cells (NCI), 48 h

Molecules are shown by their SMILES. Several values for one entry are separate records, joined by “and”; a condition that tells them apart may be missing. Equal entries are not always repeated.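 Compound exposure: 48 hours, 5 concentrations, 96-well plates. GI50 marks 50% less growth. TGI is the concentration that stops growth completely.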 A value given as a limit tells only on which side of the number the result lay.

As to `Cc1ccc(S(=O)(=O)Oc2ccc([N+](=O)[O-])cc2[N+](=O)[O-])cc1`, the GI50 was 7640 nM in the assay on ACHN renal; 3160 nM with HCT-116 colon; 13600 nM in the assay with HOP-62 NSCLC; 6700 nM in the assay with KM12 colon; 2570 nM in the assay on M14 melanoma; 6150 nM with NCI-H23 lung. In addition, the GI50 in the assay with NCI/ADR-RES ovarian was 5310 nM; in the assay on RXF 393 renal, 7890 nM; in the assay with SF-539 CNS it was 4540 nM; in the assay with SK-OV-3 ovarian, 9400 nM. The TGI in the assay with ACHN renal was determined as 22.5 µM; in the assay on HCT-116 colon, 13.2 µM; in the assay with HOP-62 NSCLC, 30.5 µM; in the assay on KM12 colon it was 20000 nM; in the assay on M14 melanoma it was 10.9 µM; with NCI-H23 lung, 32.3 µM. Also, the TGI was determined as 38 µM in the assay with NCI/ADR-RES ovarian, 20700 nM in the assay on RXF 393 renal, 18200 nM in the assay with SF-539 CNS and 91300 nM in the assay with SK-OV-3 ovarian.

On to `C/C1=C/C(=O)O[C@@H]2C[C@@H](CC[C@H](C)/C=C\C=C\CC1)O[C@@](O)([C@@H]1CSC(=O)N1CO)C2`, for which the GI50 in the assay with ACHN renal was 40.3 nM; in the assay on HCT-116 colon, 194 nM; in the assay on HOP-62 NSCLC, 25.4 nM; with KM12 colon, 4960 nM; in the assay on M14 melanoma, 227 nM; with NCI-H23 lung, 151 nM. Also, the GI50 in the assay on NCI/ADR-RES ovarian is 1200 nM; with RXF 393 renal, 36.7 nM; with SF-539 CNS, 27.4 nM; in the assay on SK-OV-3 ovarian, 50.4 nM. Also, the TGI was > 100 µM in the assay on ACHN renal; 20 µM in the assay on HCT-116 colon; 0.176 µM in the assay on HOP-62 NSCLC; 24300 nM with KM12 colon; 21.2 µM in the assay with M14 melanoma; 30.4 µM with NCI-H23 lung. In addition, the TGI with NCI/ADR-RES ovarian was 46.1 µM; in the assay on RXF 393 renal, 276 nM; with SF-539 CNS, 12400 nM; with SK-OV-3 ovarian, 404 nM.

Regarding `COc1cc2c3c(c4ccc(OC)c(OC)c4c2cc1OC)CN1CCC[C@@H]1C3`, the TGI in the assay on ACHN renal worked out at 3.55 µM; in the assay with HCT-116 colon it was 3.1 µM; with HOP-62 NSCLC, 39.8 µM; in the assay on KM12 colon, 965 nM; in the assay with M14 melanoma it was 2.56 µM; in the assay with NCI-H23 lung, 0.637 µM. Also, the TGI in the assay on NCI/ADR-RES ovarian turned out to be 0.4 µM; with RXF 393 renal, 290 nM; with SF-539 CNS it was 425 nM; in the assay with SK-OV-3 ovarian, 2840 nM.

Take `CNC(=O)c1c(NC(=O)c2ccc(C(F)(F)F)cc2)sc2c1CCC(=O)C2`: the GI50 in the assay with ACHN renal is 322 nM; with HCT-116 colon it was 188 nM; in the assay on HOP-62 NSCLC it was 2420 nM; in the assay with KM12 colon, 668 nM; with M14 melanoma, 508 nM; with NCI-H23 lung, 418 nM. Besides, the GI50 in the assay with NCI/ADR-RES ovarian is 662 nM; in the assay with RXF 393 renal, 410 nM; in the assay on SF-539 CNS, 386 nM; in the assay with SK-OV-3 ovarian it was 2260 nM. For the same molecule, the TGI in the assay on ACHN renal is 1.9 µM; with HCT-116 colon, 1.4 µM; with HOP-62 NSCLC it was 10.9 µM; with KM12 colon it was 2460 nM; in the assay with M14 melanoma, 3.77 µM; with NCI-H23 lung it was 5.9 µM. In addition, the TGI with NCI/ADR-RES ovarian came to 3.74 µM; in the assay on RXF 393 renal, 2150 nM; with SF-539 CNS, 1720 nM; in the assay with SK-OV-3 ovarian, 7200 nM.

With `Cc1cccc(-c2nn3c(c2-c2ccnc4ccc(C(N)=O)cc24)CCC3)n1`, the GI50 with ACHN renal is > 100000 nM; in the assay with HCT-116 colon, > 100000 nM; with HOP-62 NSCLC it was > 100000 nM; in the assay with KM12 colon it was > 100000 nM; with M14 melanoma it was > 91900 nM; in the assay on NCI-H23 lung, > 100000 nM. Moreover, the GI50 in the assay on NCI/ADR-RES ovarian, with RXF 393 renal, in the assay with SF-539 CNS and in the assay with SK-OV-3 ovarian was > 100000 nM each time. The TGI was > 100 µM in the assay on ACHN renal; > 100 µM with HCT-116 colon; > 100 µM with HOP-62 NSCLC; > 100000 nM in the assay with KM12 colon; > 100 µM in the assay on M14 melanoma; > 100 µM in the assay with NCI-H23 lung. The TGI in the assay on NCI/ADR-RES ovarian is > 100 µM; in the assay on RXF 393 renal it was > 100000 nM; in the assay with SF-539 CNS it was > 100000 nM; in the assay on SK-OV-3 ovarian, > 100000 nM.

Turning to `CCc1c2c(nc3cc4c(c(N)c13)OCO4)-c1cc3c(c(=O)n1C2)COC(=O)[C@]3(O)CC`, the GI50 is < 1 nM in the assay on ACHN renal; 174 nM in the assay with HCT-116 colon; < 1 nM with HOP-62 NSCLC; 133 nM and 57.8 nM with KM12 colon; < 1 nM in the assay with M14 melanoma; < 1 nM in the assay with NCI-H23 lung. Moreover, the GI50 in the assay with RXF 393 renal was 18.8 nM and 43 nM; with SF-539 CNS, < 1 nM; with SK-OV-3 ovarian, < 1 nM. In addition, the TGI in the assay with ACHN renal was 0.412 µM; in the assay on HCT-116 colon, 24.6 µM; in the assay with KM12 colon, 1660 nM; in the assay on M14 melanoma, 1.03 µM; in the assay with NCI/ADR-RES ovarian, 56.7 µM; in the assay with RXF 393 renal, 440 nM and 382 nM. The same molecule came in with a TGI in the assay on SF-539 CNS of 38 nM.

As for `CCN1C(=O)N(CC)C2C1NN=c1s/c(=C\c3ccccc3F)c(=O)n12` (centres undefined), the GI50 with ACHN renal is 52.2 nM; with HCT-116 colon, 33.3 nM; with HOP-62 NSCLC, 54.5 nM; with KM12 colon, 27.8 nM; in the assay on M14 melanoma it was 31.1 nM; in the assay on NCI-H23 lung, 64.1 nM. Also, the GI50 was 29.6 nM in the assay on NCI/ADR-RES ovarian, 22.4 nM with RXF 393 renal, 23.6 nM in the assay with SF-539 CNS and 54 nM in the assay with SK-OV-3 ovarian. Moreover, the TGI with ACHN renal is > 100 µM; in the assay on HCT-116 colon it was 14.3 µM; in the assay with HOP-62 NSCLC, > 100 µM; in the assay with KM12 colon it was > 48900 nM; in the assay with M14 melanoma, > 100 µM; with NCI-H23 lung it was > 100 µM. For the same molecule, the TGI was > 63.6 µM with NCI/ADR-RES ovarian, 1360 nM with RXF 393 renal, 69.6 nM in the assay on SF-539 CNS and 77500 nM in the assay with SK-OV-3 ovarian.

As for `C[C@H](N)C(=O)N[C@@H]1[C@H]2C(=C(O)C[C@@H](O)[C@@H]2O)C(=O)O[C@]1(C)C(Cl)Cl`, the GI50 in the assay on ACHN renal was 309 nM; with HCT-116 colon, 205 nM; in the assay on HOP-62 NSCLC, 297 nM; with KM12 colon it was 255 nM; with M14 melanoma, 258 nM; in the assay with NCI-H23 lung, 226 nM. Moreover, the figures for the GI50 in the assay on SF-539 CNS and in the assay on SK-OV-3 ovarian were 326 nM and 200 nM, respectively. Further, the TGI in the assay on ACHN renal is 5.21 µM and 1.58 µM; in the assay with HCT-116 colon it was 1.85 µM and 1.33 µM; with HOP-62 NSCLC it was 1.85 µM and 1.29 µM; in the assay with KM12 colon it was 1990 nM and 1520 nM; with M14 melanoma it was 1.49 µM and 0.507 µM; in the assay with NCI-H23 lung, 1.04 µM and 1.1 µM. The TGI in the assay on NCI/ADR-RES ovarian was 29.1 µM; with RXF 393 renal it was 828 nM and 1080 nM; in the assay with SF-539 CNS, 2370 nM and 880 nM; in the assay on SK-OV-3 ovarian, 2250 nM and 1950 nM.
